Read-outs that look alike come from different tables or passages of the source.
Columns and labels:
PC-3 xenografts = tested on: PC-3 xenografts; set-up: method as in Mansi et al. [37]; conditions: 24 h p.i.; female nude mice; i.v. 10 pmol; n = 4; ref Mansi et al. [37]; cited from earlier work
[1] = Biodistribution, CHO-K1-GRPR + CHO-K1-PSMA dual xenograft mice; conditions: female, NOD SCID, mouse, intravenous, total radioactivity; for tissue uptake at 24.2 h / tissue uptake at 25.2 h: single tracer; for tissue uptake at 24.2 h / tissue uptake at 25.8 h / tissue uptake at 25.2 h / tissue uptake at 17.6 h: dual xenograft; for tissue uptake at 24.2 h: 24.2 h p.i.; for tissue uptake at 25.8 h: 1 nmol, Mouse #8, 25.8 h p.i., 1.00 nmol; for tissue uptake at 25.8 h / tissue uptake at 17.6 h: dual tracer; for tissue uptake at 25.2 h: 1.08 nmol, Mouse #6, 25.2 h p.i.; for tissue uptake at 17.6 h: 2.69 nmol, Mouse #9, 17.6 h p.i.; for tissue uptake: CHO-K1-GRPR xenograft tumor, Uptake in CHO-K1-GRPR xenografts, range
Description: Six-to-eight-week-old female immunodeficient mice (NOD SCID) were obtained from the Core facility laboratory animal breeding and husbandry of the Medical University of Vienna, Himberg, Austria. Animals were kept in individually ventilated cages with 12 h light–dark cycle. All experiments were approved by the Federal Ministry of Education, Science and Research, Republic of Austria (2020-0.253.820 and BMBWF-66.009/0122-V/3b/2019) and performed according to the guidelines from the Federation of the European Laboratory Animal Science Associations (FELASA). After an acclimatization period of two weeks, animals were injected with 3 × 10^6 CHO-K1-GRPR cells in the right flank and 3 × 10^6 CHO-K1-PSMA cells in the left flank (3 × 10^6 in 100 µL serum-free medium each). It should be noted that approximately the same passage (±1 passage number) was used for inoculation for both cell lines to ensure similar cell viability, target incidence, and density in vivo. Tracer uptake (and thus target expression) was confirmed three days prior to inoculation in cell uptake experiments. […] Tumor growth and body weight were monitored daily. Animals were subjected to imaging after 1.5–2 weeks of tumor growth (final tumor volume of 100–800 mm^3). Endpoints were defined as rapid weight loss up to 20% body weight, tumor volume ≥ 1000 mm^3, tumor volume < 1000 mm^3 with signs of necrosis (ulcerated surface), as well as clearly detectable apathy and pain upon touch.
Animals used in imaging studies were sacrificed at different time points post injectionem (p.i.) after the last imaging time point by cervical dislocation under isofluorane anesthesia. Selected organs were removed and weighed, and organ activities were measured in a γ-counter. For animals in which a dual-tracer cocktail was administered, the organs were measured several times over a period of 2–3 weeks to use these datasets in specific calculation methods (Section 3.6 in the SI) to obtain the correct activity for each individual radionuclide at the start of the measurement series.
[99mTc]Tc-PSMA-I&S or both (dual tracer cocktail) were injected into the tail vein of tumor
xenograft-bearing female NOD SCID mice. They were sacrificed by cervical dislocation under
isofluoran anesthesia at different time points post injectionem (p.i.) after the last imaging time
point. Selected organs were removed, weighed and organ activities measured in a γ-counter.

[2] = Biodistribution, PC-3 xenograft mice; assay type: in vivo, NOD SCID mice; conditions: female, NOD SCID, intravenous, total radioactivity; for tissue uptake at 7.3 h: Mouse #2, 7.3 h p.i., 1.43 nmol; for tissue uptake at 7.3 h / tissue uptake at 4 h / tissue uptake at 25.1 h: single tracer, PC-3 xenograft; for tissue uptake at 4 h: Mouse #3, 4 h p.i., 1.49 nmol; for tissue uptake at 25.1 h: Mouse #1, 25.1 h p.i., 1.34 nmol
Text: (§1) Tumor growth and body weight were monitored daily. […]
(§2) 3.6.1 Biodistribution studies
(§3) xenograft-bearing female NOD SCID mice. […]

PC-3 xenograft = assay: Biodistribution, PC-3 xenograft mice; assay type: in vivo, NOD SCID mice; conditions: single tracer, PC-3 xenograft
Text: as §1, §2, §3

[3] = CHO-K1-GRPR tumor, Biodistribution: CHO-K1-GRPR Tumor
[4] = CHO-K1-PSMA tumor, Biodistribution: CHO-K1-PSMA Tumor
[5] = adrenal, Biodistribution: Adrenal
[6] = kidney, Biodistribution: Kidney
[7] = muscle, Biodistribution: Muscle
[8] = pancreas, Biodistribution: Pancreas
[9] = spleen, Biodistribution: Spleen
[10] = stomach (empty), Biodistribution: Stomach (empty)
[11] = PC-3 tumor, read-out: Biodistribution: PC-3 Tumor
[12] = bone, read-out: Biodistribution: Bone
[13] = colon (empty), read-out: Biodistribution: Colon (empty)
[14] = intestine (empty), read-out: Biodistribution: Intestine (empty)
[15] = liver, read-out: Biodistribution: Liver
[16] = muscle, read-out: Biodistribution: Muscle
[17] = spleen, read-out: Biodistribution: Spleen
[18] = stomach (empty), read-out: Biodistribution: Stomach (empty)
[19] = Mouse #1, 25.1 h p.i., 1.34 nmol

In the case of `CC(C)C[C@H](NC(=O)C[C@H](O)[C@H](CC(C)C)NC(=O)[C@H](Cc1c[nH]cn1)NC(=O)CNC(=O)[C@@H](NC(=O)[C@H](C)NC(=O)[C@H](Cc1c[nH]c2ccccc12)NC(=O)[C@H](CCC(N)=O)NC(=O)[C@@H](Cc1ccccc1)NC(=O)CN1CCC(NC(=O)CN2CCN(CC(=O)O)CCN(CC(=O)O)CCN(CC(=O)O)CC2)CC1)C(C)C)C(N)=O` [[^111In]In-RM2, metal not drawn], the “Uptake in PC-3 xenografts” value (PC-3 xenografts) is listed as 6.84 ± 1.02 % ID/g, the tissue uptake at 24.2 h ([1]; CHO-K1-GRPR tumor, 0.37 nmol, Biodistribution: CHO-K1-GRPR Tumor, Mouse #5, 0.37 nmol) is listed as 0.51 %ID/g and the tissue uptake at 24.2 h ([1]; CHO-K1-GRPR tumor, 0.58 nmol, Biodistribution: CHO-K1-GRPR Tumor, Mouse #4, 0.58 nmol) is listed as 0.28 %ID/g. The tissue uptake at 25.8 h [1, 3] was 0.38 %ID/g, the tissue uptake at 25.2 h [1, 3] was 0.33 %ID/g and the tissue uptake at 24.2 h ([1]; CHO-K1-GRPR tumor, 1.41 nmol, Biodistribution: CHO-K1-GRPR Tumor, Mouse #7, 1.41 nmol) was 0.06 %ID/g. It also gave a tissue uptake at 17.6 h [1, 3] of 0.26 %ID/g, a tissue uptake ([1]; dual-tracer mice #8 and #9) of 0.26 to 0.38 %ID/g and a tissue uptake ([1]; single-tracer mice #4–#7) of 0.06 to 0.51 %ID/g. It also gave a tissue uptake at 24.2 h ([1]; CHO-K1-PSMA tumor, 0.37 nmol, Biodistribution: CHO-K1-PSMA Tumor, Mouse #5, 0.37 nmol) of 0.08 %ID/g, a tissue uptake at 25.8 h [1, 4] of 0.08 %ID/g and a tissue uptake at 25.2 h [1, 4] of 0.09 %ID/g. The tissue uptake at 24.2 h ([1]; CHO-K1-PSMA tumor, 1.41 nmol, Biodistribution: CHO-K1-PSMA Tumor, Mouse #7, 1.41 nmol) was 0.08 %ID/g, the tissue uptake at 17.6 h [1, 4] was 0.09 %ID/g and the tissue uptake at 24.2 h ([1]; adrenal, 0.37 nmol, Biodistribution: Adrenal, Mouse #5, 0.37 nmol) was 0.33 %ID/g. The tissue uptake at 24.2 h ([1]; adrenal, 0.58 nmol, Biodistribution: Adrenal, Mouse #4, 0.58 nmol) was 0.12 %ID/g, the tissue uptake at 25.2 h [1, 5] was 0.16 %ID/g and the tissue uptake at 24.2 h ([1]; adrenal, 1.41 nmol, Biodistribution: Adrenal, Mouse #7, 1.41 nmol) was 0.08 %ID/g. For the same compound, the tissue uptake at 17.6 h [1, 5] was 0.12 %ID/g, the tissue uptake at 25.8 h ([1]; blood, Biodistribution: Blood) was 0.02 %ID/g and the tissue uptake at 25.2 h ([1]; blood, Biodistribution: Blood) was 0.01 %ID/g. It also gave a tissue uptake at 24.2 h ([1]; blood, 1.41 nmol, Biodistribution: Blood, Mouse #7, 1.41 nmol) of 0.01 %ID/g, a tissue uptake at 17.6 h ([1]; blood, Biodistribution: Blood) of 0.02 %ID/g and a tissue uptake at 24.2 h ([1]; bone, 0.37 nmol, Biodistribution: Bone, Mouse #5, 0.37 nmol) of 0.04 %ID/g. For the same compound, the tissue uptake at 24.2 h ([1]; bone, 0.58 nmol, Biodistribution: Bone, Mouse #4, 0.58 nmol) was 0.04 %ID/g, the tissue uptake at 25.8 h ([1]; bone, Biodistribution: Bone) was 0.06 %ID/g and the tissue uptake at 25.2 h ([1]; bone, Biodistribution: Bone) was 0.06 %ID/g. It also gave a tissue uptake at 24.2 h ([1]; bone, 1.41 nmol, Biodistribution: Bone, Mouse #7, 1.41 nmol) of 0.04 %ID/g, a tissue uptake at 24.2 h ([1]; colon (empty), 0.37 nmol, Biodistribution: Colon (empty), Mouse #5, 0.37 nmol) of 0.08 %ID/g and a tissue uptake at 24.2 h ([1]; colon (empty), 0.58 nmol, Biodistribution: Colon (empty), Mouse #4, 0.58 nmol) of 0.04 %ID/g. It also gave a tissue uptake at 25.8 h ([1]; colon (empty), Biodistribution: Colon (empty)) of 0.04 %ID/g, a tissue uptake at 24.2 h ([1]; heart, 0.58 nmol, Biodistribution: Heart, Mouse #4, 0.58 nmol) of 0.02 %ID/g and a tissue uptake at 24.2 h ([1]; heart, 1.41 nmol, Biodistribution: Heart, Mouse #7, 1.41 nmol) of 0.02 %ID/g. The tissue uptake at 24.2 h ([1]; intestine (empty), 0.37 nmol, Biodistribution: Intestine (empty), Mouse #5, 0.37 nmol) was 0.06 %ID/g, the tissue uptake at 24.2 h ([1]; intestine (empty), 1.41 nmol, Biodistribution: Intestine (empty), Mouse #7, 1.41 nmol) was 0.04 %ID/g and the tissue uptake at 17.6 h ([1]; intestine (empty), Biodistribution: Intestine (empty)) was 0.04 %ID/g. For the same compound, the tissue uptake at 24.2 h ([1]; kidney, 0.37 nmol, Biodistribution: Kidney, Mouse #5, 0.37 nmol) was 1.42 %ID/g, the tissue uptake at 24.2 h ([1]; kidney, 0.58 nmol, Biodistribution: Kidney, Mouse #4, 0.58 nmol) was 1.14 %ID/g and the tissue uptake at 25.8 h [1, 6] was 1.07 %ID/g. It also gave a tissue uptake at 25.2 h [1, 6] of 1.69 %ID/g, a tissue uptake at 24.2 h ([1]; kidney, 1.41 nmol, Biodistribution: Kidney, Mouse #7, 1.41 nmol) of 1.34 %ID/g and a tissue uptake at 17.6 h [1, 6] of 1.09 %ID/g. For the same compound, the tissue uptake at 24.2 h ([1]; liver, 0.37 nmol, Biodistribution: Liver, Mouse #5, 0.37 nmol) was 0.13 %ID/g, the tissue uptake at 24.2 h ([1]; liver, 0.58 nmol, Biodistribution: Liver, Mouse #4, 0.58 nmol) was 0.1 %ID/g and the tissue uptake at 25.8 h ([1]; liver, Biodistribution: Liver) was 0.28 %ID/g. For the same compound, the tissue uptake at 25.2 h ([1]; liver, Biodistribution: Liver) was 0.2 %ID/g, the tissue uptake at 24.2 h ([1]; liver, 1.41 nmol, Biodistribution: Liver, Mouse #7, 1.41 nmol) was 0.17 %ID/g and the tissue uptake at 17.6 h ([1]; liver, Biodistribution: Liver) was 0.13 %ID/g. It also gave a tissue uptake at 25.8 h ([1]; lung, Biodistribution: Lung) of 0.04 %ID/g, a tissue uptake at 24.2 h ([1]; lung, 1.41 nmol, Biodistribution: Lung, Mouse #7, 1.41 nmol) of 0.04 %ID/g and a tissue uptake at 24.2 h ([1]; muscle, 0.37 nmol, Biodistribution: Muscle, Mouse #5, 0.37 nmol) of 0.01 %ID/g. It also gave a tissue uptake at 24.2 h ([1]; muscle, 0.58 nmol, Biodistribution: Muscle, Mouse #4, 0.58 nmol) of 0.01 %ID/g, a tissue uptake at 25.8 h [1, 7] of 0.01 %ID/g and a tissue uptake at 25.2 h [1, 7] of 0.02 %ID/g. The tissue uptake at 24.2 h ([1]; muscle, 1.41 nmol, Biodistribution: Muscle, Mouse #7, 1.41 nmol) was 0.01 %ID/g, the tissue uptake at 17.6 h [1, 7] was 0.01 %ID/g and the tissue uptake at 24.2 h ([1]; pancreas, 0.37 nmol, Biodistribution: Pancreas, Mouse #5, 0.37 nmol) was 0.1 %ID/g. For the same compound, the tissue uptake at 24.2 h ([1]; pancreas, 0.58 nmol, Biodistribution: Pancreas, Mouse #4, 0.58 nmol) was 0.07 %ID/g, the tissue uptake at 25.8 h [1, 8] was 0.07 %ID/g and the tissue uptake at 25.2 h [1, 8] was 0.06 %ID/g. It also gave a tissue uptake at 24.2 h ([1]; pancreas, 1.41 nmol, Biodistribution: Pancreas, Mouse #7, 1.41 nmol) of 0.04 %ID/g, a tissue uptake at 17.6 h [1, 8] of 0.04 %ID/g and a tissue uptake at 24.2 h ([1]; spleen, 0.37 nmol, Biodistribution: Spleen, Mouse #5, 0.37 nmol) of 0.08 %ID/g. The tissue uptake at 24.2 h ([1]; spleen, 0.58 nmol, Biodistribution: Spleen, Mouse #4, 0.58 nmol) was 0.07 %ID/g, the tissue uptake at 25.8 h [1, 9] was 0.25 %ID/g and the tissue uptake at 25.2 h [1, 9] was 0.13 %ID/g. It also gave a tissue uptake at 24.2 h ([1]; spleen, 1.41 nmol, Biodistribution: Spleen, Mouse #7, 1.41 nmol) of 0.08 %ID/g, a tissue uptake at 17.6 h [1, 9] of 0.1 %ID/g and a tissue uptake at 24.2 h ([1]; stomach (empty), 0.37 nmol, Biodistribution: Stomach (empty), Mouse #5, 0.37 nmol) of 0.04 %ID/g. The tissue uptake at 25.8 h [1, 10] was 0.04 %ID/g, the tissue uptake at 25.2 h [1, 10] was 0.04 %ID/g and the tissue uptake at 7.3 h [2, 11] was 1.36 %ID/g. The tissue uptake at 4 h [2, 11] was 2.75 %ID/g, the tissue uptake at 4 h ([2]; adrenal, read-out: Biodistribution: Adrenal) was 0.13 %ID/g and the tissue uptake at 25.1 h [2, 12] was 0.07 %ID/g. For the same compound, the tissue uptake at 4 h [2, 12] was 0.04 %ID/g, the tissue uptake at 25.1 h [2, 13] was 0.04 %ID/g and the tissue uptake at 7.3 h [2, 13] was 0.04 %ID/g. The tissue uptake at 7.3 h ([2]; heart, read-out: Biodistribution: Heart) was 0.02 %ID/g, the tissue uptake at 25.1 h [2, 14] was 0.08 %ID/g and the tissue uptake at 4 h [2, 14] was 0.08 %ID/g. It also gave a tissue uptake at 7.3 h ([2]; kidney, read-out: Biodistribution: Kidney) of 1.29 %ID/g, a tissue uptake at 25.1 h [2, 15] of 0.17 %ID/g and a tissue uptake at 7.3 h [2, 15] of 0.12 %ID/g. The tissue uptake at 4 h [2, 15] was 0.22 %ID/g, the tissue uptake ([2]; mouse, PC-3 xenograft tumor, 4-25.1 h p.i., range over mice, read-out: Uptake in PC-3 xenografts) was 1.36 to 2.75 %ID/g and the tissue uptake at 25.1 h [2, 16] was 0.01 %ID/g. For the same compound, the tissue uptake at 7.3 h [2, 16] was 0.01 %ID/g, the tissue uptake at 4 h [2, 16] was 0.01 %ID/g and the tissue uptake at 25.1 h ([2]; pancreas, read-out: Biodistribution: Pancreas) was 0.06 %ID/g. It also gave a tissue uptake at 25.1 h [2, 17] of 0.16 %ID/g, a tissue uptake at 7.3 h [2, 17] of 0.13 %ID/g and a tissue uptake at 4 h [2, 17] of 0.1 %ID/g. The tissue uptake at 7.3 h [2, 18] was 0.02 %ID/g, the tissue uptake at 4 h [2, 18] was 0.09 %ID/g and the “Biodistribution: Kidney” value (PC-3 xenograft; [19]) was 2.17 % ID/g. For the same compound, the “Biodistribution: PC-3 Tumor” value (PC-3 xenograft; [19]) was 2.20 % ID/g, the “Biodistribution: Heart” value (PC-3 xenograft; Mouse #3, 4 h p.i., 1.49 nmol) was 0.02 % ID/g and the “Biodistribution: Kidney” value (PC-3 xenograft; Mouse #3, 4 h p.i., 1.49 nmol) was 2.20 % ID/g.

Reference: paper PMC12298007 (Pharmaceuticals, 2025)
